These results are taken from ChEMBL document CHEMBL1799965, “Synthesis of useful fragments in drug discovery: 2-Amino-5-tert-butylpyridine and its oxidised analogues” (Bioorg Med Chem Lett, 2011).

≈ marks a conversion by molar mass, not a printed value. Where only a bound is given, the exact number is not on record here.

Data set [1] in a line: Lipophilicity, Log D of the compound by HPLC method. Format: physicochemical.
The next data set deals with Albumin (Homo sapiens, UniProt P02768). Kind of data set: Binding affinity to human serum albumin by HPLC method.
Chain of Albumin (P02768 whole entry): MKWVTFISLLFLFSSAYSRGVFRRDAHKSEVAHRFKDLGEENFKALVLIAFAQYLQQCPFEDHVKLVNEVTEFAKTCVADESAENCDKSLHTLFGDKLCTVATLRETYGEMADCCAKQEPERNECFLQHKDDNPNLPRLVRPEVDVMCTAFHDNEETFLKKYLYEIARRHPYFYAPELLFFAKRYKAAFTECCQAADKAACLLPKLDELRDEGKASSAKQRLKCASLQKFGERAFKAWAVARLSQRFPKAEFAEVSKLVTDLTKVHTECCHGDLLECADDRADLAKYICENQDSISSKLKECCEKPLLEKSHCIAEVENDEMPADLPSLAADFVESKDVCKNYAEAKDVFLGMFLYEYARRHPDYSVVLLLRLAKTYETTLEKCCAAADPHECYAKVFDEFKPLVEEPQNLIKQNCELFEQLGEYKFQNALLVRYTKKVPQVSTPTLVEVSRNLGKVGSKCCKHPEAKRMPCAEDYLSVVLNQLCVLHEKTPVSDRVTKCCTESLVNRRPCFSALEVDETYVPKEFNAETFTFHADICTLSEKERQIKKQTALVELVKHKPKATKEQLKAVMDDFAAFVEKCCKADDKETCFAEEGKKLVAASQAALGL
The nature of data set [2]: Solubility of the compound in simulated fasted intestinal fluid. Format: physicochemical. Conditions: simulated gi fluid.
The nature of data set [3]: Membrane affinity to immobilized artificial membrane by HPLC method. It is filed as physicochemical.
Data set [4] can be described thus: Solubility of the compound in buffer at pH 6.8. It is filed as physicochemical.

In general, logD refers to the decadic logarithm of the distribution of all forms, ionised or not, between an organic phase and buffer at a given pH. Low values mean a more hydrophilic compound, high ones a more lipophilic compound. For orientation: solubility means the dissolved amount per volume that the medium holds. High values mean a readily soluble substance, low ones a poorly soluble substance. `CC(C)(C)c1ccc(N)nc1` showed a logD in data set [1] of 1.53. The same compound returned an Activity at Albumin of 38.9%. The solubility was 72 µM (≈ 10.8 µg/mL) in data set [2] and 59 µM (≈ 8.86 µg/mL) in data set [4]. In data set [3], this compound showed a CHI of 33.
In data set [1], `CC(C)(C)c1ccc(N)cc1` showed a logD of 2.83. The same compound displayed an Activity at Albumin of 78.5%. Moreover, the solubility in data set [2] and in data set [4] was under 5 µM throughout. The same compound yielded a CHI in data set [3] of 35.5.
